Columns and labels:
Assay type in all cases: in vivo
[1] = tested on: Aedes aegypti; test: whole plant or invertebrate; conditions: 800 ppm; larvae; 2 days
Summary of the method: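 Freshly hatched larvae (5-15 per well) were held in tap water, and compounds formulated in 25% DMSO/water were sprayed onto diet at several concentrations in duplicate. Larval mortality was scored visually after 2 days at 28±1 °C, 80±5% RH.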

[2] = tested on: Heliothis virescens; test: Action on Tobacco Budworm (Heliothis virescens); conditions: 800 ppm; egg and larval mortality; 5 days
Summary of the method: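 Compounds in 25% DMSO/75% water were sprayed at several concentrations onto insect diet in microtiter wells holding 15-25 eggs, two replications. After 5 days at about 28±1 °C and 80±5% RH, egg and larval mortality was scored visually.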

[3] = tested on: Spodoptera eridania; test: Action on Southern Armyworm (Spodoptera eridania), 2nd Instar Larvae; conditions: 300 ppm; 2nd instar larvae; 4 days after treatment
Summary of the method: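 Compounds in 50% acetone/water with 0.01% nonionic surfactant sprayed electrostatically onto Lima bean plants at 1st true leaf stage. After drying, 10–11 2nd-instar larvae bagged with each pot, kept about 25 °C, 20–40% RH. Mortality and reduced feeding scored at 4 days vs untreated plants.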

[4] = tested on: Dichromothrips corbetti; test: Action on Orchid Thrips (Dichromothrips corbetti); conditions: 300 ppm; adults; 72 hours after treatment
Description: Example B2: Action on Orchid Thrips (Dichromothrips corbetti)
Dichromothrips corbetti adults used for bioassay were obtained from a colony maintained continuously under laboratory conditions. For testing purposes, the test compound is diluted in a 1:1 mixture of acetone: water (vol: vol), plus Kinetic® HV at a rate of 0.01% v/v.
Thrips potency of each compound was evaluated by using a floral-immersion technique. All petals of individual, intact orchid flowers were dipped into treatment solution and allowed to dryin Petri dishes. Treated petals were placed into individual re-sealable plastic along with about 20 adult thrips. All test arenas were held under continuous light and a temperature of about 28 °C for duration of the assay. After 3 days, the numbers of live thrips were counted on each petal. The percent mortality was recorded 72 hours after treatment.

[5] = tested on: Plutella xylostella; test: Action on Diamond Back Moth (Plutella xylostella), cabbage leaf dip, 3rd instar larvae; conditions: 300 ppm; 3rd instar larvae; 72 hours after treatment
Summary of the method: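 Cabbage leaves dipped in compound solution (1:1 water:acetone, 0.01% v/v surfactant), air-dried, then infested with ten 3rd-instar larvae in petri dishes on moist filter paper. Mortality scored at 72 h after treatment; feeding damage rated on a 0–100% scale.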

[6] = tested on: Anthonomus grandis; test: Action on Boll Weevil (Anthonomus grandis); conditions: 800 ppm; egg and larval mortality; 5 days
Summary of the method: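 Compounds in 75:25 water:DMSO sprayed at several concentrations onto insect diet in microtiter wells holding 5-10 eggs, two replicates. Plates kept 5 days at about 25±1 °C and 75±5% RH; egg and larval mortality scored visually.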

[7] = tested on: Bemisia argentifolii; test: Action on Silverleaf Whitefly (Bemisia argentifolii) (Adults); conditions: 300 ppm, 3 days after treatment
Description: Example B4: Action on Silverleaf Whitefly (Bemisia argentifolii) (Adults)
The active compounds were formulated by a Tecan liquid handler in 100% cyclohexanone as a 10,000 ppm solution supplied in tubes. The 10,000 ppm solution was serially diluted in 100% cyclohexanone to make interim solutions. These served as stock solutions for which final dilutions were made by the Tecan in 50% acetone: 50% water (v/v) into 5 or 10 ml glass vials. A nonionic surfactant (Kinetic®) was included in the solution at a volume of 0.01% (v/v). The vials were then inserted into an automated electrostatic sprayer equipped with an atomizing nozzle for application to plants/insects.
Cotton plants at the cotyledon stage (one plant per pot) were sprayed by an automated electrostatic plant sprayer equipped with an atomizing spray nozzle. The plants were dried in the sprayer fume hood and then removed from the sprayer. Each pot was placed into a plastic cup and about 10 to 12 whitefly adults (approximately 3-5 days old) were introduced. The insects were collected using an aspirator and a nontoxic Tygon® tubing connected to a barrier pipette tip. The tip, containing the collected insects, was then gently inserted into the soil containing the treated plant, allowing insects to crawl out of the tip to reach the foliage for feeding. […] Mortality was assessed 3 days after treatment, compared to untreated control plants.

[8] = tested on: Plutella xylostella; test: Action on Diamond Back Moth (Plutella xylostella), microtiter plates, insect diet, eggs; conditions: 800 ppm; egg and larval mortality; 5 days
Summary of the method: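 Diet in 96-well plates with 15–25 P. xylostella eggs, sprayed with compound formulated in 75% water/25% DMSO at several concentrations, two replicates; mixtures combined in equal volumes. Incubated 5 days at 28±1 °C, 80±5% RH, then egg and larval mortality scored visually.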

Cc1ccc(C(C)C)c(N2C(=O)CS/C2=N\C(=O)Nc2ccc(-n3cc(NC(=O)c4ccc(OC(F)(F)F)cc4)c(C)n3)cc2F)c1 [Example C-6]
mortality in comparison with untreated controls [1]: at least 50%
mortality in comparison with untreated controls [2]: at least 75%
mortality in comparison with untreated controls [3]: at least 75%
mortality in comparison with untreated controls [4]: at least 75%
mortality in comparison with untreated controls [5]: at least 75%
mortality in comparison with untreated controls [6]: at least 75%
mortality in comparison with untreated controls [7]: at least 75%

Cc1ccc(C(C)C)c(N2C(=O)CS/C2=N\C(=O)Nc2ccc(-n3nc(C)c(NC(=O)c4ccc(OC(F)(F)F)cc4)c3C)cc2C)c1 [Example C-18]
mortality in comparison with untreated controls [1]: at least 50%
mortality in comparison with untreated controls [2]: at least 75%
mortality in comparison with untreated controls [3]: at least 75%
mortality in comparison with untreated controls [4]: at least 75%
mortality in comparison with untreated controls [5]: at least 75%
mortality in comparison with untreated controls [6]: at least 75%

Cc1ccc(C(C)C)c(N2C(=O)CS/C2=N\C(=O)Nc2ccc(-n3nc(C)c(NC(=O)c4ccc(OC(F)(F)F)cc4)c3C)cc2Br)c1 [Example C-19]
mortality in comparison with untreated controls [1]: at least 50%
mortality in comparison with untreated controls [2]: at least 75%
mortality in comparison with untreated controls [3]: at least 75%
mortality in comparison with untreated controls [4]: at least 75%
mortality in comparison with untreated controls [5]: at least 75%
mortality in comparison with untreated controls [6]: at least 75%

Cc1ccc(C(C)C)c(N2C(=O)CS/C2=N\C(=O)Nc2ccc(-n3nc(C)c(NC(=O)c4ccc(OC(F)(F)F)cc4)c3C)cc2OC(F)F)c1 [Example C-20]
mortality in comparison with untreated controls [1]: at least 50%
mortality in comparison with untreated controls [2]: at least 75%
mortality in comparison with untreated controls [3]: at least 75%
mortality in comparison with untreated controls [4]: at least 75%
mortality in comparison with untreated controls [5]: at least 75%
mortality in comparison with untreated controls [6]: at least 75%

Cc1ccc(C(C)C)c(N2C(=O)CS/C2=N\C(=O)Nc2ccc(-n3cc(NC(=O)c4cc(F)c(F)c(F)c4)c(C)n3)cc2)c1 [Example C-23]
mortality in comparison with untreated controls [1]: at least 50%
mortality in comparison with untreated controls [2]: at least 75%
mortality in comparison with untreated controls [3]: at least 75%
mortality in comparison with untreated controls [4]: at least 75%
mortality in comparison with untreated controls [5]: at least 75%
mortality in comparison with untreated controls [6]: at least 75%

Cc1ccc(C(C)C)c(N2C(=O)CS/C2=N\C(=O)Nc2ccc(-n3cc(NC(=O)c4ccc(F)c(F)c4)c(C)n3)cc2)c1 [Example C-25]
mortality in comparison with untreated controls [1]: at least 50%
mortality in comparison with untreated controls [2]: at least 75%
mortality in comparison with untreated controls [3]: at least 75%
mortality in comparison with untreated controls [4]: at least 75%
mortality in comparison with untreated controls [5]: at least 75%
mortality in comparison with untreated controls [6]: at least 75%

Cc1ccc(C(C)C)c(N2C(=O)CSC2=NC(=O)Nc2ccc(-n3nc(C)c(N(CC4CC4)C(=O)c4ccc(OC(F)(F)F)cc4)c3C)cc2Cl)c1 [Example C-46]
mortality in comparison with untreated controls [1]: at least 50%
mortality in comparison with untreated controls [2]: at least 75%
mortality in comparison with untreated controls [3]: at least 75%
mortality in comparison with untreated controls [4]: at least 75%
mortality in comparison with untreated controls [8]: at least 75%
mortality in comparison with untreated controls [6]: at least 75%

CCN(C(=O)c1ccc(OC(F)(F)F)cc1)c1c(C)nn(-c2ccc(NC(=O)/N=C3\SCC(=O)N3c3cc(C)ccc3C(C)C)c(Cl)c2)c1C [Example C-97]
mortality in comparison with untreated controls [1]: at least 50%
mortality in comparison with untreated controls [2]: at least 75%
mortality in comparison with untreated controls [3]: at least 75%
mortality in comparison with untreated controls [4]: at least 75%
mortality in comparison with untreated controls [5]: at least 75%
mortality in comparison with untreated controls [6]: at least 75%

Cc1ccc(C(C)C)c(N2C(=O)CS/C2=N\C(=O)Nc2cc(F)c(-n3nc(C)c(NC(=O)c4ccc(OC(F)(F)F)cc4)c3C)cc2Cl)c1 [Example C-104]
mortality in comparison with untreated controls [1]: at least 50%
mortality in comparison with untreated controls [2]: at least 75%
mortality in comparison with untreated controls [3]: at least 75%
mortality in comparison with untreated controls [4]: at least 75%
mortality in comparison with untreated controls [8]: at least 75%
mortality in comparison with untreated controls [6]: at least 75%

Cc1ccc(C(C)C)c(N2C(=O)CSC2=NC(=O)Nc2ccc(-n3nc(C)c(NC(=O)c4ccc(OC(F)(F)F)cc4)c3C)c(Cl)c2Cl)c1 [Example C-123]
mortality in comparison with untreated controls [1]: at least 50%
mortality in comparison with untreated controls [2]: at least 75%
mortality in comparison with untreated controls [3]: at least 75%
mortality in comparison with untreated controls [4]: at least 75%
mortality in comparison with untreated controls [8]: at least 75%
mortality in comparison with untreated controls [6]: at least 75%

Cc1ccc(C(C)C)c(NC(=S)NC(=O)Nc2ccc(-n3nc(C)c(NC(=O)c4ccc(OC(F)(F)F)cc4)c3C)cc2Cl)c1 [Example C-125]
mortality in comparison with untreated controls [1]: at least 50%
mortality in comparison with untreated controls [2]: at least 75%
mortality in comparison with untreated controls [3]: at least 75%
mortality in comparison with untreated controls [4]: at least 75%
mortality in comparison with untreated controls [8]: at least 75%
mortality in comparison with untreated controls [6]: at least 75%

Cc1ccc(C(C)C)c(N/C(=N/C(=O)Nc2ccc(-n3nc(C)c(NC(=O)c4ccc(OC(F)(F)F)cc4)c3C)cc2Cl)SCOC(=O)C(C)C)c1 [Example C-130]
mortality in comparison with untreated controls [1]: at least 50%
mortality in comparison with untreated controls [2]: at least 75%
mortality in comparison with untreated controls [4]: at least 75%
mortality in comparison with untreated controls [8]: at least 75%
mortality in comparison with untreated controls [6]: at least 75%

— patent publication US20260354380A1, “PYRAZOLO PESTICIDAL COMPOUNDS” (BASF SE, priority 2022, published 2026)
